Source: the CATMoS acute toxicity set (Mansouri et al. 2021)

Assay: GHS categories as the set defines them, by LD50: 1 up to 5, 2 up to 50, 3 up to 300, 4 up to 2000, 5 above 2000 mg/kg
Conditions: rat; in vivo; po

| SMILES | GHS category |
| --- | --- |
| COc1ccc(OC(=O)c2ccccc2OC(N)=O)cc1 | 5 |
| CCCCCC(=Cc1ccccc1)C(OC)OC | 5 |
| CCS(=O)(=O)c1nc2ccccn2c1S(=O)(=O)NC(=O)Nc1nc(OC)cc(OC)n1 | 5 |
| O=C(O)c1cc(C(=O)O)cc([N+](=O)[O-])c1 | 5 |
| CC(SCC(=O)O)c1ccc2c(c1)Cc1ccccc1-2 (centres undefined) | 4 |
| CC1(c2ccc(Oc3ccccc3)cc2)OC(=O)N(Nc2ccccc2)C1=O (centres undefined) | 5 |
| c1ccc(CN(Cc2ccccc2)Sc2nc3ccccc3s2)cc1 | 5 |
| CC1(C(=O)Nc2ccc(O)c(Cl)c2Cl)CCCCC1 | 5 |
| O=C(CCl)N(c1ccccc1)c1c(Cl)cccc1Cl | 5 |
| CC(=O)N1c2ccccc2SC1c1cc([N+](=O)[O-])ccc1OCCCN(C)C1CCCCC1 (centres undefined) | 5 |
| N=C1C=CC2=CC(S(=O)(=O)O)=CC(=O)C2=C1NNc1ccc(-c2ccc(N=Nc3cc(S(=O)(=O)O)c4ccccc4c3N)cc2)cc1 | 5 |
| CCC/C=C/COC(C)=O | 5 |
| CCOc1ccc(NC(=O)OC(C)C)cc1OCC | 5 |
| Cc1[nH]nc(C(=O)Nc2cccc(C(F)(F)F)c2)c1Br | 5 |
| Cc1cc(C(=O)NCCc2ccc(S(=O)(=O)NC(=O)NN3CCCCCC3)cc2)no1 | 5 |
| Cc1nsc(NC(=O)c2ccccc2)c1C(=O)Nc1ccc(Cl)cc1 | 5 |
| COCC1=C(C(=O)OC(C)OC(=O)OC(C)C)N2C(=O)[C@@H](NC(=O)/C(=N\OC)c3csc(N)n3)[C@H]2SC1 (some centres undefined) | 5 |
| COc1ccccc1OC(=O)c1ccccc1Nc1cccc(C)c1C | 5 |
| Cn1c(=O)c2c([nH]c(=O)n2C)n(C)c1=O | 5 |
| COc1cc(OC)nc(NC(=O)NS(=O)(=O)c2ncccc2C(F)(F)F)n1 | 5 |
| CC(=O)OC1C=CC(C)=CCC(O)C=CC(C)=CC(NC(=O)C(C)=O)C2(C)C(=O)OC(C1)C(C)C2=O (centres undefined) | 5 |
| NC[C@@H]1CC[C@@H](N)[C@@H](O[C@H]2[C@H](O)[C@@H](O[C@H]3O[C@H](CO)[C@@H](O)[C@H](N)[C@H]3O)[C@H](N)C[C@@H]2N)O1 | 5 |

| SMILES | GHS category |
| --- | --- |
| O=C1NC(=O)c2ccc3c4cccc5cccc(c6ccc1c2c63)c54 | 5 |
| O=C(O)C(O)C(O)C(O)C(O)C(O)CO (centres undefined) | 5 |
| COc1ccc(N(CCCC(=O)O)C(=O)c2ccc(Cl)cc2)c(OC)c1 | 4 |
| CCC(=O)OCCC(C)CCC=C(C)C (centres undefined) | 5 |
| COc1cc(OC)nc(NC(=O)NS(=O)(=O)Cc2ccccc2C(=O)O)n1 | 5 |
| COC(=O)[C@H]1[C@H]2C[C@@H]3c4[nH]c5cc(OC)ccc5c4CCN3C[C@H]2C[C@@H](OC(=O)/C=C/c2ccc(O)c(OC)c2)[C@@H]1OC | 5 |
| C/C(=C(\CCOC(=O)C(C)C)SS/C(CCOC(=O)C(C)C)=C(/C)N(C=O)Cc1cnc(C)nc1N)N(C=O)Cc1cnc(C)nc1N | 5 |
| O=c1cc(-c2ccccc2)c2ccc(OCCCN3CCC(c4ccccc4)CC3)cc2[nH]1 | 4 |
| CCC(C)(NC(=O)c1cc(Cl)c(C)c(Cl)c1)C(=O)CCl (centres undefined) | 5 |
| COCOC1CCCCCCCCCCC1 | 5 |
| CC1Oc2cc(C(=O)c3cccs3)ccc2N(C)C1=O (centres undefined) | 5 |
| COc1cc([N+](=O)[O-])ccc1N=NC(C(C)=O)C(=O)Nc1cc(Cl)ccc1OC (centres undefined) | 5 |
| O=C(c1ccccc1)C1(O)CCCCC1 | 5 |
| Nc1nc(-c2ccc3ccccc3c2)cs1 | 5 |
| CCC(=O)OC/C=C(/C)CCC=C(C)C | 5 |
| CCOCCC(C)CCC=C(C)C (centres undefined) | 5 |
| CC1(C)S[C@@H]2[C@H](N3C(=O)C(c4ccccc4)NC3(C)C)C(=O)N2[C@H]1C(=O)O (some centres undefined) | 5 |
| CCN(C(=O)SCc1ccccc1)C(C)C(C)C (centres undefined) | 5 |
| CCOC(=O)NCC1CCN(c2nc(N)c3cc(OC)c(OC)cc3n2)CC1 | 4 |
| CC(C)(C)C1CCC(OC(=O)OOC(=O)OC2CCC(C(C)(C)C)CC2)CC1 (centres undefined) | 5 |
| CC(C)OP(=O)(O)Oc1ccccc1 | 5 |
| CCCC(=O)c1ccc(NC)c(O)c1 | 5 |

| SMILES | GHS category |
| --- | --- |
| O=c1nc2nc[nH]n2c(COCc2ccccc2)c1Cc1ccc(-c2ccccc2-c2nn[nH]n2)cc1 | 4 |
| CC(C)c1cc(C(C)C)cc(C(C)C)c1 | 5 |
| CCCCCCCCC=O | 5 |
| NC(=O)c1ccc[n+]([C@@H]2O[C@H](COP(=O)([O-])OP(=O)(O)OC[C@H]3O[C@@H](n4cnc5c(N)ncnc54)[C@H](O)[C@@H]3O)[C@@H](O)[C@H]2O)c1 | 5 |
| CCCC(=O)N(C)C(=O)Oc1cccc2c1OC(C)(C)O2 | 4 |
| NC(=O)Oc1ccccc1C(=O)Oc1ccccc1 | 5 |
| CCOP(=S)(OCC)SSSP(=S)(OCC)OCC | 5 |
| C=C1NC(=O)C(C)NC(=O)C(C(C)C)NC2C=Cc3c(C(C)O)cc(nc3C2O)C(=O)OC(C)C2NC(=S)c3csc(n3)C(C(C)(O)C(C)O)NC(=O)C3CSC(=N3)C(=CC)NC(=O)C(C(C)O)NC(=O)c3csc(n3)C3(CCC(c4nc(C(N)=O)cs4)NC3c3csc2n3)NC(=O)C(C)NC1=O (centres undefined) | 5 |
| O=[N+]([O-])c1cc(C(F)(F)F)c(Cl)c([N+](=O)[O-])c1Nc1ncc(C(F)(F)F)cc1Cl | 5 |
| B12B3B4B1C234 | 5 |
| CCOP(Oc1c(C)cc(C(C)(C)C)cc1C(C)(C)C)Oc1c(C)cc(C(C)(C)C)cc1C(C)(C)C | 5 |
| CN1CCN(CC(=O)N2c3ccccc3C(=O)Nc3cccnc32)CC1 | 5 |
| CCCCCC1=C(CC(=O)OC)CCC1=O | 5 |
| C=C(CC)CCCC(C)(C)OC(C)=O | 5 |
| CC(C)=CCCC(C)=CC1OCCO1 | 5 |
| C=C1CC[C@@]23C[C@@H]1C(C)(C)[C@@H]2C(O)C[C@H]3C (some centres undefined) | 5 |
| CC(C)(CO)c1cc(Cl)nnc1Cl | 4 |
| CCCC(=O)OCC(C)C | 5 |
| CC(=O)OC1CC[C@H]2[C@@H]3CC[C@H]4CC(=O)C=C(C)[C@]4(C)[C@H]3CC[C@]12C (some centres undefined) | 5 |
| CC1(C)O[C@@H]2C[C@H]3[C@@H]4C[C@H](F)C5=CC(=O)C=C[C@]5(C)[C@@]4(F)[C@@H](O)C[C@]3(C)[C@]2(C(=O)CO)O1 | 5 |
| COc1cc(O)c2c(=O)oc(CO)cc2c1 | 4 |
| O=C1C=C2C=C[C@@H]3C[C@@]2(O1)[C@H]1CCCCN31 | 4 |

| SMILES | GHS category |
| --- | --- |
| CN(C/C=C/C#CC(C)(C)C)Cc1cccc2ccccc12 | 5 |
| NC(N)=NCc1ccc2c(c1)OCCO2 | 5 |
| CCN(C(=O)CCCSc1nnnn1C)C1CCCCC1 | 4 |
| NC(=O)Oc1ccc(Br)cc1C(=O)Oc1ccccc1 | 5 |
| O=C1c2ccccc2OC1c1ccccc1 (centres undefined) | 5 |
| CCCCCCCCCC(=O)OCC(CC)(COC(=O)CCCCCCC)COC(=O)CCCCCCC | 5 |
| COc1ccc([C@@H]2CC(=O)c3c(O)cc(O[C@@H]4O[C@H](CO[C@@H]5O[C@@H](C)[C@H](O)[C@@H](O)[C@H]5O)[C@@H](O)[C@H](O)[C@H]4O)cc3O2)cc1O | 5 |
| CCCNC(=O)c1sc(-c2ccccc2OC)nc1C | 5 |
| CC(C)C1(C)N=C(c2ncccc2C(=O)O)NC1=O (centres undefined) | 5 |
| CCCCCCCCCCCCCCOC(=O)Cl | 5 |
| COCCOCOCCOC | 5 |
| CC(=O)O[C@]1(C(C)=O)CC[C@H]2[C@@H]3C=C(C)C4=CC(=O)CC[C@@H]4[C@H]3CC[C@@]21C | 5 |
| CCC=CCCCCCCCCCCCCCCOCC | 5 |
| CC1Oc2cc(C(=O)C=Cc3ccccc3)ccc2N(C)C1=O (centres undefined) | 5 |
| C1CCCCCC2=C(CCCC1)CCCO2 | 5 |
| N#CCCNCCCCCCNCCC#N | 5 |
| CCCCCCCCC(=O)O | 5 |
| Oc1ccc(C(O)CN2CCN(C(c3ccccc3)c3ccccc3)CC2)cc1 (centres undefined) | 5 |
| CCC=CCC(C)OC(=O)c1ccccc1O (centres undefined) | 5 |
| Cc1c([N+](=O)[O-])cc2c(c1[N+](=O)[O-])C(C)(C)CC2(C)C | 5 |
| CC1OC(Cn2cncn2)(c2cc3cc(Cl)cc(Cl)c3o2)OC1C (centres undefined) | 4 |
| CC(=O)CCC=C(C)CC/C=C(\C)CC/C=C(\C)CCC=C(C)C | 5 |

| SMILES | GHS category |
| --- | --- |
| CC(C)Oc1ccc2c(=O)c(-c3ccccc3)coc2c1 | 5 |
| CCOC(=O)c1nn(-c2ccc(OC)cc2)c2c1CCN(c1ccc([N+](=O)[O-])cc1)C2=O | 5 |
| C[C@]12CCC(=O)C=C1C=C[C@@H]1[C@@H]2CC[C@@]2(C)[C@H]1CC[C@@]21CCC(=O)O1 | 5 |
| CC=COC | 5 |
| Nc1c[n+](N2CCOCC2)no1 | 4 |
| CCCc1c(Cc2ccc(-c3ccccc3-c3nn[nH]n3)cc2)c(=S)nc2nc[nH]n12 | 4 |
| O=c1c2cc(Cl)ccc2[nH]c2cc3c(=O)c4cc(Cl)ccc4[nH]c3cc12 | 5 |
| CCOC(=O)C(=O)Nc1cc(SCCOC)ncn1 | 4 |
| Nc1nc(COc2ccc(Cl)cc2)nc(NCCc2ccccc2)n1 | 5 |
| CC1Oc2cc(C(=O)c3ccc(Cl)cc3)ccc2NC1=O (centres undefined) | 5 |
| CC1CC(OC(=O)C(C)(C)Oc2ccc(Cl)cc2)CC(C)(C)C1 (centres undefined) | 5 |
| CC(C)CCCCCCCCCCCCCCC(=O)O | 5 |
| O=C(O)Cc1nc(-c2ccc(F)cc2)oc1-c1ccsc1 | 5 |
| Cc1cc2cc3c(C)cc(=O)oc3c(C)c2o1 | 5 |
| O=C1NC(=O)c2ccc3c4ccc5c6c(ccc(c7ccc1c2c73)c64)C(=O)NC5=O | 5 |
| CN(CCO)S(=O)(=O)C(F)(F)C(F)(F)C(F)(F)C(F)(F)F | 5 |
| CCn1cc(C(=O)O)c(=O)c2cc(F)c(-n3cccc3)cc21 | 5 |
| CCCCC(=O)O[C@]1(C(=O)CO)[C@@H](C)C[C@H]2[C@@H]3CCC4=CC(=O)C=C[C@]4(C)[C@@]3(F)[C@@H](O)C[C@@]21C | 5 |
| Nc1nc(=O)c2c([nH]1)NCC(CNc1ccc(C(=O)N[C@@H](CCC(=O)O)C(=O)O)cc1)N2C=O (some centres undefined) | 5 |
| CC(C)(N=C=O)c1ccc(C(C)(C)N=C=O)cc1 | 5 |
| C[C@]12C=CC(=O)C=C1CC[C@@H]1[C@@H]2CC[C@@]2(C)[C@H]1CC[C@]2(C)O | 4 |
